The values below come from patent US9434711B2 (Janssen Pharmaceutica, NV, priority 2007, dated 2016).

Read-outs that look alike come from different tables or passages of the source.

One assay concerns Male Sprague Dawley rats. In words: Chronic Constriction Injury (CCI)-Induced Model of Neuropathic Pain, Acetone-Induced Hypersensitivity. The assay is classed as in vivo, rat. The settings on record: Rattus norvegicus, po, 4 h, 30 mg/kg p.o., Water, pretreatment 4 hr, Na salt form; read-out: Percent Inhibition. An excerpt:
Male Sprague Dawley rats (225-450 g; n=5-8/treatment) were used to evaluate the ability of selected compounds of the formula (I) to reverse CCI-induced cold hypersensitivity. Four loose ligatures of 4-0 chromic gut were surgically placed around the left sciatic nerve under inhalation anesthesia as described by Bennett et al (Bennett G J, Xie Y K. Pain 1988, 33(1): 87-107). Fourteen to 35 days following CCI surgery, subjects were placed in elevated observation chambers containing wire mesh floors and five applications of acetone (0.05 mL/application separated by approximately 5 minutes) were spritzed onto the plantar surface of the paw using a multidose syringe. An abrupt withdrawal or lifting of the paw was considered a positive response. The number of positive responses was recorded for each rat over the five trials. Following baseline withdrawal determinations, compounds of formula (I) are administered in an appropriate vehicle, such as hydroxypropyl-β-cyclodextrin (HP β CD), methylcellulose, Methocel, 10% Solutol, or H2O, or the like, by the appropriate route, i.p. or p.o. […] Results are presented as a percent inhibition of […], which was calculated for each subject as [1−(test compound withdrawals/pre-test withdrawals)]×100 and then averaged by treatment.

The next assay addresses canine TRPM8 (Canis lupus familiaris, UniProt Q1A7N1). Description: In Vitro Canine TRPM8 Functional Assay (Ca2+ fluorescence, icilin activation). It is filed as cell-based. The conditions noted are these: for IC50: read-out: IC50; for inhibition at 0.2 µM: read-out: % Inh @ 0.2; for inhibition at 0.5 µM: compound at 0.5 μM, read-out: % Inh @ 0.5. The method, boiled down: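 Eight-point dose-response curves, each point averaging quadruplicate wells, gave EC50 or IC50. Canine TRPM8-expressing HEK293 cells, dye-loaded (Calcium 3), were pre-exposed 5 min to compound, then challenged with icilin at roughly EC80; intracellular Ca2+ read by FLIPR or FDSS fluorescence.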

Setting [1] is: HEK293 cells stably expressing canine TRPM8, icilin activation, eight-point dose-response.
Where [2] appears, read: compound at 0.2 μM, canine TRPM8, icilin activation.
The mark [3] stands for this setting: canine TRPM8, icilin activation.

Sequence of canine TRPM8 (Q1A7N1 1-1104): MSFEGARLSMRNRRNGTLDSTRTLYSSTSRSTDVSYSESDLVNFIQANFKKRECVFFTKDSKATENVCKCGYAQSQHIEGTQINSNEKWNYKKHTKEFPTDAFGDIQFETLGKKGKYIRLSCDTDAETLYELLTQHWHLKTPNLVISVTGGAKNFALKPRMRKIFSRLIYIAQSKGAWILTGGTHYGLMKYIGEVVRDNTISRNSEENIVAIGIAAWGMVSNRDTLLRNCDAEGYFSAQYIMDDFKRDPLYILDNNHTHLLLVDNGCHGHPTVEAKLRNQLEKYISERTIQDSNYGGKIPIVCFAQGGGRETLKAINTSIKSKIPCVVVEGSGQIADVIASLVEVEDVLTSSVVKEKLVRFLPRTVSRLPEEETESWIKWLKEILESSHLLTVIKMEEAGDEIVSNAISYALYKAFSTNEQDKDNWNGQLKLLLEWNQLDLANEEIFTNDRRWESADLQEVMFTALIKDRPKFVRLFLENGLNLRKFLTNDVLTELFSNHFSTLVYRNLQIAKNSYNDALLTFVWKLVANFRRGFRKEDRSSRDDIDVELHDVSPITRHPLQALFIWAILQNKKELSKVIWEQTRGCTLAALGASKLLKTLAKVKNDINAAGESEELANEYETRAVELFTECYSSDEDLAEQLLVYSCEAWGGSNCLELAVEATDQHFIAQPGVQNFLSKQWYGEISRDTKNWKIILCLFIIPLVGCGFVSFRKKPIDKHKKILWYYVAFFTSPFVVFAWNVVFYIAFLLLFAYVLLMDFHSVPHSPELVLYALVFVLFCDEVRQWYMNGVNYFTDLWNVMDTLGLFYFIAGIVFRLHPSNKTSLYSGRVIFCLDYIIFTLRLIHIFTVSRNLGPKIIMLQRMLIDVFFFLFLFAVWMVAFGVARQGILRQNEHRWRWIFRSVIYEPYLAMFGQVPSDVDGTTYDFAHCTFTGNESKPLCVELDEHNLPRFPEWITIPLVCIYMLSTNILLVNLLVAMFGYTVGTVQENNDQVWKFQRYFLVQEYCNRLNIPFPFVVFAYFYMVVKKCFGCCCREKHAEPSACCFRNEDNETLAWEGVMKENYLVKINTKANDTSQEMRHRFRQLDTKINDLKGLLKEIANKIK

Usually IC50 stands for the concentration that inhibits the measured activity by half. Turning to `O=C(O)c1ccc(S(=O)(=O)N(CCC2CC2)c2sc3ccccc3c2Br)cc1` [Compound 396, N-(3-Bromo-benzo[b]thiophen-2-yl)-N-(2-cyclopropylethyl)-4-carboxy-benzenesulfonamide], the inhibition in vivo at 30 mg/kg in the assay with Male Sprague Dawley rats came out at 50%. Moreover, at canine TRPM8 (setting [1]), the concentration for half-maximal inhibition (IC50) was determined as 5 nM. The inhibition at 0.2 µM at canine TRPM8 (setting [2]) is 101%. Take `CC1=C(N(CCC2CC2)S(=O)(=O)c2ccccc2)S(=O)(=O)c2ccccc21` [Compound 618, N-(2-Cyclopropyl-ethyl)-N-(3-methyl-1,1-dioxo-benzo[b]thiophen-2-yl)-benzenesulfonamide]: the half-inhibitory concentration (IC50) on canine TRPM8 (setting [1]) is 10.4 nM. In addition, at canine TRPM8 (setting [2]), the inhibition at 0.2 µM came to 101%. `CCS(=O)(=O)N(Cc1ccc(F)c(C(F)(F)F)c1)c1sc2ccccc2c1C(C)(C)O` [Compound 227, N-(4-Fluoro-3-trifluoromethyl-benzyl)-N-[3-(1-hydroxy-1-methyl-ethyl)-benzo[b]thiophen-2-yl]-ethanesulfonamide]: the IC50 on canine TRPM8 (setting [1]) came out at 0.6 nM. The inhibition at 0.2 µM at canine TRPM8 (setting [2]) turned out to be 101%.

On to `CCCCN(C1=C(Br)c2ccccc2S1(=O)=O)S(=O)(=O)c1ccc(C(=O)OC)cc1` [Compound 433, N-(3-Bromo-1,1-dioxo-benzo[b]thiophen-2-yl)-N-(butyl)-4-carbomethoxy-benzenesulfonamide], for which the IC50 on canine TRPM8 (setting [1]) turned out to be 33 nM. Further, the inhibition at 0.2 µM at canine TRPM8 (setting [2]) amounted to 93%. With `Cc1c(N(CCCF)S(=O)(=O)c2ccc(C(=O)O)cc2)sc2ccccc12` [Compound 824, N-(3-Fluoropropyl)-N-(3-methyl-benzo[b]thiophen-2-yl)-4-carboxy-benzenesulfonamide], the inhibition at 0.2 µM at canine TRPM8 (0.2 μM compound, HEK293 cells stably expressing canine TRPM8, icilin activation) worked out at 98%. The IC50 on canine TRPM8 (HEK293 cells stably expressing canine TRPM8, icilin activation, average of two or more determinations) is 38 nM.

Take `Cc1c(N(CCC2CC2)S(=O)(=O)c2ccc(-c3nnn[nH]3)cc2)sc2ccccc12` [Compound 570, N-(3-Methyl-benzo[b]thiophen-2-yl)-N-(cyclopropyl-ethyl)-4-(1H-tetrazol-5-yl)-benzenesulfonamide]: the IC50 at canine TRPM8 (setting [1]) worked out at 6.6 nM. In addition, on canine TRPM8 (setting [2]), the inhibition at 0.2 µM came out at 101%.

With `Cc1c(N(CCCC(F)(F)F)S(=O)(=O)c2ccc(Oc3ccncc3)cc2)sc2ccccc12` [Compound 372, N-(3-Methyl-benzo[b]thiophen-2-yl)-N-(4,4,4-trifluoro-butyl)-4-(pyridin-4-yloxy)-benzenesulfonamide], on canine TRPM8 (setting [1]), the IC50 came to 27 nM. For the same molecule, at canine TRPM8 (setting [2]), the inhibition at 0.2 µM amounted to 91%. Consider `CN(C)S(=O)(=O)N(Cc1ccc(F)c(C(F)(F)F)c1)c1cc2ccccc2s1` [Compound 315, N-(Benzo[b]thiophen-2-yl)-N-(4-fluoro-3-trifluoromethyl-benzyl)-N′,N′-dimethlysulfamide], for which the IC50 at canine TRPM8 (setting [1]) was 64 nM. Besides, on canine TRPM8 (setting [2]), the “% Inh @ 0.2 (μM)” value turned out to be 99%. Consider `Cc1c(N(Cc2cc(Cl)ccc2Cl)S(=O)(=O)c2ccc(C(=O)O)cc2)sc2ccccc12` [Compound 520, N-(3-Methyl-benzo[b]thiophen-2-yl)-N-(2,5-dichloro-benzyl)-4-carboxy-benzenesulfonamide], for which, on canine TRPM8 (setting [2]), the inhibition at 0.2 µM is 102%. `CC(=O)c1c(N(CCC(F)(F)F)S(=O)(=O)c2ccc(C(=O)O)cc2)sc2ccccc12` [Compound 385, N-(3-Acetyl-benzo[b]thiophen-2-yl)-N-(3,3,3-trifluoro-propyl)-4-carboxy-benzenesulfonamide]: the inhibition at 0.2 µM at canine TRPM8 (setting [2]) stood at 54%. With `CCCCN(c1cc2ccccc2s1)S(=O)(=O)c1ccc(-c2nnn[nH]2)cc1` [Compound 449, N-(Benzo[b]thiophen-2-yl)-N-(butyl)-4-(1H-tetrazol-5-yl)-benzenesulfonamide], on canine TRPM8 (setting [1]), the IC50 stood at 88 nM. For the same molecule, the inhibition at 0.2 µM on canine TRPM8 (setting [2]) came out at 97%. In the case of `O=S(=O)(c1ccccc1)N(CC1CCCCC1)c1sc2ccccc2c1Br` [Compound 232, N-(3-Bromo-benzo[b]thiophen-2-yl)-N-(cyclohexylmethyl)-benzenesulfonamide], the IC50 at canine TRPM8 (setting [1]) is 74 nM. Also, the inhibition at 0.5 µM at canine TRPM8 (setting [3]) came out at 94%. As for `O=S(=O)(CC(F)(F)F)N(Cc1ccc(F)c(C(F)(F)F)c1)c1sc2ccccc2c1CO` [Compound 704, N-(3-Hydroxymethyl-benzo[b]thiophen-2-yl)-N-(4-fluoro-3-trifluoromethyl-benzyl)-2,2,2-trifluoro-ethanesulfonamide], the inhibition at 0.2 µM on canine TRPM8 (setting [2]) was 102%.

In the case of `O=C1NCCN1CCN(c1sc2ccccc2c1Br)S(=O)(=O)c1ccccc1` [Compound 240, N-(3-Bromo-benzo[b]thiophen-2-yl)-N-[2-(2-oxo-imidazolidin-1-yl)-ethyl]-benzenesulfonamide], on canine TRPM8 (setting [3]), the inhibition at 0.5 µM stood at 43%. Take `O=S(=O)(c1cccnc1Cl)N(Cc1ccc(F)c(C(F)(F)F)c1)c1cc2ccccc2s1` [Compound 310, N-(Benzo[b]thiophen-2-yl)-N-(4-fluoro-3-trifluoromethyl-benzyl)-2-chloro-pyridin-3-ylsulfonamide]: the inhibition at 0.2 µM at canine TRPM8 (setting [2]) was found to be 69%.

Turning to `CC(O)c1c(N(Cc2ccc(F)c(C(F)(F)F)c2)S(C)(=O)=O)sc2ccccc12` (stereo not shown) [Compound 224, N-(4-Fluoro-3-trifluoromethyl-benzyl)-N-[3-(1-hydroxy-ethyl)-benzo[b]thiophen-2-yl]-methanesulfonamide], the IC50 at canine TRPM8 (setting [1]) stood at 1 nM. For the same molecule, on canine TRPM8 (setting [2]), the inhibition at 0.2 µM was determined as 100%.

As for `Cc1c(N(CCC(F)(F)F)S(=O)(=O)c2ccc(-c3nsc(=O)[nH]3)cc2)sc2ccccc12` [Compound 637, N-(3-Methyl-benzo[b]thiophen-2-yl)-N-(3,3,3-trifluoro-propyl)-4-(5-oxo-4,5-dihydro-[1,2,4]thiadiazol-3-yl)-benzenesulfonamide], on canine TRPM8 (setting [1]), the concentration for half-maximal inhibition (IC50) was determined as 12.2 nM. The inhibition at 0.2 µM at canine TRPM8 (setting [2]) turned out to be 104%.

For `CS(=O)(=O)Nc1ccc(S(=O)(=O)N(CCC2CC2)c2sc3ccccc3c2Br)cc1` [Compound 717, N-(3-Bromo-benzo[b]thiophen-2-yl)-N-(2-cyclopropyl-ethyl)-4-methanesulfonylamino-benzenesulfonamide], on canine TRPM8 (setting [1]), the IC50 amounted to 5 nM. The inhibition at 0.2 µM at canine TRPM8 (setting [2]) was determined as 102%. In the case of `CCS(=O)(=O)N(CC1CCCN1C(=O)OC(C)(C)C)c1sc2ccccc2c1C` (stereo not shown) [Compound 114, N-(3-Methyl-benzo[b]thiophen-2-yl)-N-{[1-(carbo-tert-butoxy)pyrrolidin-2-yl]-methyl}-ethanesulfonamide], the concentration for half-maximal inhibition (IC50) on canine TRPM8 (setting [1]) was found to be 51.1 nM. Also, the inhibition at 0.2 µM on canine TRPM8 (setting [2]) stood at 93%.

Regarding `C=CCN(c1cc2ccccc2s1)S(=O)(=O)c1ccccc1` [Compound 116, N-(Allyl)-N-(benzo[b]thiophen-2-yl)-benzenesulfonamide], at canine TRPM8 (setting [1]), the half-maximal inhibitory concentration (IC50) was determined as 102 nM. Further, on canine TRPM8 (setting [3]), the inhibition at 0.5 µM is 98%.

Consider `N#Cc1cccc(S(=O)(=O)N(CCCC(F)(F)F)c2cc3ccccc3s2)c1` [Compound 574, N-(Benzo[b]thiophen-2-yl)-N-(4,4,4-trifluoro-butyl)-3-cyano-benzenesulfonamide], for which, on canine TRPM8 (setting [2]), the inhibition at 0.2 µM is 16%. Consider `COC(=O)c1ccc(S(=O)(=O)N(Cc2ccc(F)c(C(F)(F)F)c2)c2sc3ccccc3c2C(C)C)cc1` [Compound 563, N-(4-Fluoro-3-trifluoromethyl-benzyl)-N-(3-isopropyl-benzo[b]thiophen-2-yl)-4-carbomethoxy-benzenesulfonamide], for which the IC50 at canine TRPM8 (setting [1]) amounted to 49.3 nM. Besides, the inhibition at 0.2 µM on canine TRPM8 (setting [2]) turned out to be 94%. As for `CCCCS(=O)(=O)N(Cc1ccc(F)c(F)c1)c1cc2ccccc2s1` [Compound 37, N-(Benzo[b]thiophen-2-yl)-N-(3,4-difluoro-benzyl)-butane-1-sulfonamide], at canine TRPM8 (setting [1]), the concentration for half-maximal inhibition (IC50) is 98.3 nM. Further, at canine TRPM8 (setting [3]), the inhibition at 0.5 µM was found to be 96%. With `CC(=O)Nc1c(N(Cc2ccc(F)c(C(F)(F)F)c2)S(=O)(=O)c2ccccc2)sc2ccccc12` [Compound 509, N-{2-[Benzenesulfonyl-(4-fluoro-3-trifluoromethyl-benzyl)-amino]-benzo[b]thiophen-3-yl}-acetamide], the IC50 on canine TRPM8 (setting [1]) was 32 nM. The inhibition at 0.2 µM on canine TRPM8 (setting [2]) stood at 100%.
